Tests used:
E. coli TEM 1 = assay: agar diffusion test, inhibition zone diameter (Hemmhof), inhibitor alone and combined with Cefaclor; type: cell-based, E. coli W 311O3 R6K (TEM 1); conditions: for zone of inhibition at 10 µg/disc: Escherichia coli, TEM1, read-out: Hemmhofdurchmesser mm (E. coli TEM 1) I (10 mcg); for Hemmhofzuwachs, d.h. die Schutzwirkung: increase of zone with Cefaclor versus alone; for Eigenwirkung als Antibiotika: inhibitor alone; for Wirkung als Betalactamasehemmer gegen E. coli TEM 1: protection of Cefaclor against the bacterial enzyme
Text: "like" bedeutet gleiche absolute Konfiguration zweier benachbarter Chiralitätszentren. Als Testkeim wurde ein besonders starker Betalactamase-Bildner verwendet. E. coli W 311O3 R6K (TEM 1) wurde deshalb mehrfach in einer Kulturlösung mit 2O mcg/ml Cefaclor bebrütet. Cefaclor allein (3O mcg) ergab einen Hemmhof von 16 mm, mit 1O mcg Clavulansäure kombiniert einen solchen von 22 mm Durchmesser.

[1] = system: Penicillin resistenten Staph. aureus; conditions: comparison with Clavulansäure; from earlier filing EP 89117433.6; cited from earlier work
Pseudomonas aeruginosa = conditions: comparison with Clavulansäure; from earlier filing EP 89117433.6; cited from earlier work
[2] = biological target: T1, Cephalosporinasen aus Enterobacter cloacae (Enterobacter cloacae, UniProt P05364); conditions: reported in Amer. J. Med. 79 (suppl. 5B), 194 (1985); cited from earlier work
T1 construct: dagegen ist auch gegen diese Keime als Betalactamasehemmer wirksam; endogenous in cells
T1 sequence (P05364 21-381): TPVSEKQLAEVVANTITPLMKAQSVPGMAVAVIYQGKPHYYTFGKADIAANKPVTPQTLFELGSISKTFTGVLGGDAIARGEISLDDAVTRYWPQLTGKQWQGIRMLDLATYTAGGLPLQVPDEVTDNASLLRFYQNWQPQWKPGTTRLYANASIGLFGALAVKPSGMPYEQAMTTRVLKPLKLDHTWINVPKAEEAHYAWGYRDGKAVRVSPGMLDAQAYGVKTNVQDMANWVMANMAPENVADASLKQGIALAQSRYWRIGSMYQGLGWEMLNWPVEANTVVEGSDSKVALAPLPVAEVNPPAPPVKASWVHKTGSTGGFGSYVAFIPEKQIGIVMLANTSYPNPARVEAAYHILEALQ

[3] = biological target: T2, Cephalosporinasen aus Pseudomonas aeruginosa (Pseudomonas aeruginosa, UniProt P24735); conditions: reported in Amer. J. Med. 79 (suppl. 5B), 194 (1985); cited from earlier work
T2 construct: dagegen ist auch gegen diese Keime als Betalactamasehemmer wirksam; endogenous in cells
T2 sequence (P24735 27-397): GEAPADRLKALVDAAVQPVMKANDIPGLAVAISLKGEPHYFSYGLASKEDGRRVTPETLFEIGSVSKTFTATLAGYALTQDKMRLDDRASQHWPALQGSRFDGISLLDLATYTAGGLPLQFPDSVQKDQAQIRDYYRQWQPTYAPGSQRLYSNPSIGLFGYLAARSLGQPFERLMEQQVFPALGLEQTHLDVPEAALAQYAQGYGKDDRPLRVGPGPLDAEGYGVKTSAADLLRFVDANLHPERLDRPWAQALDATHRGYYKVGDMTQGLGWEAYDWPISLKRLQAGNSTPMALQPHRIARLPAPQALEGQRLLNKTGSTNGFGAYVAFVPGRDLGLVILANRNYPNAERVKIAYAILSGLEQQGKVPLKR

E. cloacae = assay: inhibition zone diameter, third-generation cephalosporin combined with inhibitor; type: cell-based
Text: Die erfindungsgemässen Verbindungen sind in der Lage, schon in geringen Konzentrationen die Hemmwirkung aller untersuchter Penicilline wie z. B. Amoxycillin, Piperacillin, Mezlocillin oder Cephalosporine wie z. B. Cefaclor, Cefoperazon gegen Betalactamase-bildende Bakterien zu verstärken. Auch gemeinhin als Betalactamase-stabile geltende Cephalosporine der dritten Generation wie z. B. Cefotaxim oder Ceftriaxon (je 3O mcg) ergaben in der Kombination mit Ie (1O mcg) erstmals deutliche Hemmhöfe vom Durchmesser 27 bzw. 26 mm gegen E. cloacae. Die erfindungsgemässen Verbindungen sind stark wirksam gegen Penicillinasen und Cephalosporinasen.

[4] = biological target: T1, Cephalosporinasen aus Enterobacter cloacae; assay: beta-lactamase inhibitor activity against cephalosporinase producer; conditions: requires partner antibiotic able to enter the bacterium
[5] = biological target: T2, Cephalosporinasen aus Pseudomonas aeruginosa; assay: as above; conditions: requires partner antibiotic able to enter the bacterium

N[C@@H](C(=O)N[C@@H]1C(=O)N2C(C(=O)O)=C(Cl)CS[C@H]12)c1ccccc1 [Cefaclor, reference compound]
Hemmhof (E. coli TEM 1; Cefaclor allein (3O mcg)): 16 mm

CC(C)(C)C1=C(C(=O)O)N2C(=O)[C@H](CO)[C@H]2O1 (racemic) [Ia, 2-tert-Butyl-6-hydroxymethyloxapenem-3-carbonsäure (K-Salz)]
zone of inhibition at 10 µg/disc (E. coli TEM 1): 17 mm
Hemmhofzuwachs, d.h. die Schutzwirkung (E. coli TEM 1): vergleichsweise gering
Eigenwirkung als Antibiotika (E. coli TEM 1): gute Eigenwirkung
Wirksamkeit in der Kombination mit Mezlocillin [1]: wirksamer als Clavulansäure
Wirksamkeit in der Kombination mit Mezlocillin (Pseudomonas aeruginosa): wirksamer als Clavulansäure

C[C@@H](O)[C@H]1C(=O)N2C(C(=O)O)=C(C(C)(C)C)O[C@H]12 [Id]
zone of inhibition at 10 µg/disc (E. coli TEM 1): 23 mm
Hemmhofzuwachs, d.h. die Schutzwirkung (E. coli TEM 1): vergleichsweise gering
Eigenwirkung als Antibiotika (E. coli TEM 1): gute Eigenwirkung

O=C(O)[C@H]1/C(=C/CO)O[C@@H]2CC(=O)N21 [Clavulansäure]
Hemmhof Durchmesser (E. coli TEM 1; Cefaclor 3O mcg combined with 1O mcg Clavulansäure): 22 mm
Wirkung gegen Cephalosporinasen [2]: nicht
Wirkung gegen Cephalosporinasen [3]: nicht

C[C@H](O)[C@H]1C(=O)N2C(C(=O)O)=C(C(C)(C)C)O[C@@H]12 (racemic) [Ic, racemischer cis-2-tert-Butyl-6-(unlike-hydroxyethyl)oxapenem-3-carbonsäure]
zone of inhibition at 10 µg/disc (E. coli TEM 1): 9 mm

C[C@H](O)[C@H]1C(=O)N2C(C(=O)O)=C(C(C)(C)C)O[C@H]12 (racemic) [Ib, racemischer trans-2-tert-Butyl-6-(unlike-hydroxyethyl)oxapenem-3-carbonsäure]
zone of inhibition at 10 µg/disc (E. coli TEM 1): 0 mm
Wirkung als Betalactamasehemmer gegen E. coli TEM 1 (E. coli TEM 1): besonders gute Wirkung

C[C@H](O)[C@H]1C(=O)N2C(C(=O)O)=C(C(C)(C)C)O[C@H]12 [Ie, (5R,6R)-2-tert-Butyl-((1S)-hydroxyethyl)oxapenem-3-carbonsäure (K-Salz)]
zone of inhibition at 10 µg/disc (E. coli TEM 1): 0 mm
Wirkung als Betalactamasehemmer gegen E. coli TEM 1 (E. coli TEM 1): besonders gute Wirkung
Hemmhöfe vom Durchmesser (E. cloacae; Cefotaxim 3O mcg combined with Ie 1O mcg): 27 mm
Hemmhöfe vom Durchmesser (E. cloacae; Ceftriaxon 3O mcg combined with Ie 1O mcg): 26 mm
Wirkung als Betalactamasehemmer [4]: wirksam
Wirkung als Betalactamasehemmer [5]: wirksam

From patent EP0548790A1, “(1'S)-Hydroxyalkyloxapenem-3-carboxylic acids and their use as beta-lactamase inhibitors” (ELI LILLY AND COMPANY, priority 1991, dated 1993)
